According to patent publication US12338283B2, “Methods for targeting the immune checkpoint PD1 pathway for treating pulmonary fibrosis” (CEDARS-SINAI MEDICAL CENTER, priority 2017, dated 2025):

Assays:
patients with IPF = settings: cited from earlier work
CD274+ IPF fibroblasts = assay: Matrigel invasion assay of flow-sorted IPF lung fibroblasts; type: cell-based, human
Description: (§1) CD274+ and CD274-fibroblast were flow sorted from fibroblasts of healthy and IPF lungs. The cells were plated onto transwells for migration assay, with and without anti-CD274 antibody (α-CD274) and control IgG. Migratory fibroblasts were fixed, stained, and photographed. […] CD274+ and CD274− fibroblast were flow sorted from fibroblasts of healthy and IPF lungs. The cells were plated onto matrigel chamber for invasion assay, with and without anti-CD274 antibody (α-CD274) and control IgG. Invasive fibroblasts were fixed, stained, and photographed.
FIG. 10A is a schematic representation of an in vitro invasion assay: Lung fibroblasts were seeded in the upper part of transwells. Cells attached to the bottom of Matrigel-coated membrane after 24 h were considered invasive fibroblasts. Cells that remained on top of Matrigel-coated membrane were considered non-invasive fibroblasts. […]
FIG. 19A-J show CD274 and FAK signaling are required for lung fibroblast invasion. […] FIG. 19B and FIG. 19C are graphs that show cell migration index or invasion index, which was calculated as the number of cells attached to the bottom of control or Matrigel-coated membrane after 24 h, normalized to respective CD274^low lung fibroblasts. […]
(§2) CD274+ and CD274− fibroblasts from IPF and healthy lungs were flow sorted and analyzed with an invasion assay.

[1] = tested on: NSG mice injected with CD274^high IPF fibroblasts; assay: Humanized SCID IPF model: lung fibrosis (hydroxyproline, Masson trichrome) in NSG mice injected with IPF fibroblasts; type: in vivo, mouse; settings: mice receiving CD274^high lung fibroblasts, compared with vehicle (CMC-Na) treated mice (FIG. 19E, 19F)
Description: FIG. 19A-J show CD274 and FAK signaling are required for lung fibroblast invasion. In the experimental results shown in FIG. 19A-FIG. 19C, equal number of cells were seeded in the upper part of transwells and cell migration and invasion assays were performed (n=3 per group). […] Scale bar: 1 mm. FIG. 19B and FIG. 19C are graphs that show cell migration index or invasion index, which was calculated as the number of cells attached to the bottom of control or Matrigel-coated membrane after 24 h, normalized to respective CD274^low lung fibroblasts. […] GAPDH served as equal loading control. FIG. 19E, FIG. 19G, and FIG. 19I show hydroxyproline contents in lung tissues. FIG. 19F, FIG. 19H and FIG. 19J show Masson trichrome staining of collagen on lung sections from NSG mice injected with CD274^low and CD274^high IPF fibroblasts treated with VS4718, vehicle control CMC-Na, or from NSG mice receiving gRNA-CTL or CD274 KO lung fibroblasts (n=6 per group), or from NSG mice injected with CD274^high IPF fibroblasts treated with Q-CD274 (n=12 per group) or isotype control IgG (n=12 for D0-35 IgG, n=11 for D35-63 IgG). Scale bars (FIG. 19F, FIG. 19H): 1 mm (top panel), 100 μm (middle and lower panels). Throughout, data are mean±sem. *P<0.05; **P<0.01 by student's t test (FIG. 19B, FIG. 19C, FIG. 19E, FIG. 19G).
The effect of the inhibition is assessed with hyroxyproline assay. […]

CD274+ fibroblasts = assay: Transwell migration assay of flow-sorted IPF lung fibroblasts; type: cell-based, human; settings: CD274^low and CD274^high IPF fibroblasts, 24 h, vs vehicle DMSO (FIG. 19A-C)
Description: as §1
FIG. 19A-J show CD274 and FAK signaling are required for lung fibroblast invasion. In the experimental results shown in FIG. 19A-FIG. 19C, equal number of cells were seeded in the upper part of transwells and cell migration and invasion assays were performed (n=3 per group). […] Scale bar: 1 mm. FIG. 19B and FIG. 19C are graphs that show cell migration index or invasion index, which was calculated as the number of cells attached to the bottom of control or Matrigel-coated membrane after 24 h, normalized to respective CD274^low lung fibroblasts. […] GAPDH served as equal loading control. FIG. 19E, FIG. 19G, and FIG. 19I show hydroxyproline contents in lung tissues. […]
as §2

Molecule: CC(=O)N[C@@H](CS)C(=O)O [acetylcysteine]
- clinical benefit in patients with IPF (patients with IPF): some benefits

Molecule: CNC(=O)c1ccccc1Nc1cc(Nc2ccc(N3CCOCC3)cc2OC)ncc1C(F)(F)F [VS4718]
- cell invasion of lung fibroblasts (CD274+ IPF fibroblasts; CD274^low and CD274^high IPF fibroblasts, Matrigel-coated membrane, 24 h, vs vehicle DMSO (FIG. 19A-C)): significantly blocked
- invasiveness / invasive phenotype of CD274+ fibroblasts (CD274+ IPF fibroblasts; flow-sorted CD274+ IPF fibroblasts, matrigel chamber): reduced invasiveness
- development of fibrosis [1]: prevented the development of fibrosis
- cell migration of lung fibroblasts (CD274+ fibroblasts): significantly blocked

Molecule: COc1ccccc1Oc1c(NS(=O)(=O)c2ccc(C(C)(C)C)cc2)nc(-c2ncccn2)nc1OCCO [Bosentan]
- clinical benefit in patients with IPF (patients with IPF): not better than placebo

Molecule: COC(=O)c1ccc2c(c1)NC(=O)/C2=C(\Nc1ccc(N(C)C(=O)CN2CCN(C)CC2)cc1)c1ccccc1 [nintedanib]
- improve lung function or reduce fibrosis (patients with IPF): neither

Molecule: Cc1ccc(=O)n(-c2ccccc2)c1 [Pirfenidone]
- disease progression (patients with IPF): reduces disease progression
- improve lung function or reduce fibrosis (patients with IPF): neither

B1: Interferon gamma-1b: interferon-gamma replenishment tested in IPF trials (protein, UniProt P01579 24-161, looked up)
Interferon gamma: QDPYVKEAENLKKYFNAGHSDVADNGTLFLGILKNWKEESDRKIMQSQIVSFYFKLFKNFKDDQSIQKSVETIKEDMNVKFFNSNKKKRDDFEKLTNYSVTDLNVQRKAIHELIQVMAELSPAAKTGKRKRSQMLFRG
- survival for patients with IPF (patients with IPF): did not improve survival
